Article PMC11566078, “Bactericidal activities and biochemical features of 16 antimicrobial peptides against bovine-mastitis causative pathogens” (Veterinary Research, 2024)
Like-named read-outs stand apart in the source and are kept apart here. Where no end group is shown, it is not given here.

What was measured:
[1] = test system: Bacillus cereus ATCC 10876; test: microbe, parasite or virus in culture; format: cell-based; conditions: ATCC 10876, 6 h
Description: (§1) The standard bacterial strains used for antimicrobial activity assays include Staphylococcus aureus ATCC (American Type Culture Collection, Manassas, VA, USA) 6538, Bacillus cereus ATCC 10876, Enterococcus faecalis ATCC 29212, Streptococcus […] 27956, Streptococcus dysgalactiae ATCC 27957, Streptococcus equi subsp. zooepidemicus ATCC 43079, Escherichia coli ATCC 25922, and Pseudomonas aeruginosa ATCC 27853. Most bacterial strains were cultured in LB medium except for E. faecalis and streptococci, which were cultivated in brain heart infusion (BHI) broth (BD Bioscience). […] Experiments were conducted in triplicate.

[2] = test system: Enterococcus faecalis ATCC 29212; test: microbe, parasite or virus in culture; format: cell-based; conditions: ATCC 29212, 6 h
Description: as §1

[3] = test system: Pseudomonas aeruginosa ATCC 27853; test: microbe, parasite or virus in culture; format: cell-based; conditions: ATCC 27853, 6 h
Description: as §1

[4] = test system: Staphylococcus aureus ATCC 6538; test: microbe, parasite or virus in culture; format: cell-based; conditions: ATCC 6538, 6 h
Description: as §1

[5] = test system: Streptococcus agalactiae ATCC 27956; test: microbe, parasite or virus in culture; format: cell-based; conditions: ATCC 27956, 6 h
Description: as §1

[6] = test system: Streptococcus dysgalactiae ATCC 27957; test: microbe, parasite or virus in culture; format: cell-based; conditions: ATCC 27957, 6 h
Description: as §1

[7] = test system: Streptococcus equi subsp. zooepidemicus ATCC 43079; test: microbe, parasite or virus in culture; format: cell-based; conditions: ATCC 43079, 6 h
Description: as §1

Corynebacterium simulans = test: microbe, parasite or virus in culture; format: cell-based; conditions: 6 h
Description: (§2) All plates were cultivated aerobically.
(§3) Experiments were conducted in triplicate.

[8] = test system: Glutamicibacter halophytocola; test: microbe, parasite or virus in culture; format: cell-based; conditions: 6 h
Description: as §2, §3

[9] = test system: Staphylococcus chromogenes; test: microbe, parasite or virus in culture; format: cell-based; conditions: 6 h
Description: as §2, §3

[10] = test system: Staphylococcus epidermidis; test: microbe, parasite or virus in culture; format: cell-based; conditions: 6 h
Description: as §2, §3

Staphylococcus xylosus = test: microbe, parasite or virus in culture; format: cell-based; conditions: 6 h
Description: as §2, §3

Streptococcus uberis = test: microbe, parasite or virus in culture; format: cell-based; conditions: 6 h
Description: as §2, §3

E. coli (ATCC 25922) [11] = format: cell-based, Escherichia coli
Description: as §3
(§4) The MICs against E. coli (ATCC 25922) for cc-CATH3, ML-CATH, and PD-CATH in 150 mM NaCl and different pH (pH 5, 6, and 7) that were adjusted using acetic acid (Sigma Aldrich) were determined as described above. For serum stability assay, each AMP at four different concentrations was dissolved in 50% (v/v) FBS (Hyclone™) and incubated at 37 °C for 0, 60, and 120 min, respectively. As described in a previous study, ΔHg-CATH was used as a control for serum sensitivity. The antimicrobial activity of cc-CATH3, ML-CATH, and PD-CATH against E. coli was assessed for each condition as above. All experiments were conducted in triplicate.

E. coli (ATCC 25922) [12] = format: in vitro ADME, Escherichia coli
Description: as §4
Figure 2 Changes in the antibacterial activity of cc-CATH3, ML-CATH, and PD-CATH after incubation with naïve serum. cc-CATH3, ML-CATH, and PD-CATH peptides were incubated in 50% (v/v) FBS each for 0, 60, and 120 min before applying to antimicrobial activity assay against E. coli (ATCC 25922). The antimicrobial activity was determined by measuring bacterial growth at OD 450 nm. The X and Y axes indicate peptide concentration and absorbance at 450 nm, respectively. Samples containing 50% FBS in the absence of the peptides indicate a control for bacterial growth without AMP treatments. The antimicrobial activity of cc-CATH3 (A), ML-CATH (B), and PD-CATH (C) after the treatment of FBS-incubated AMPs was shown.

bovine erythrocytes = test: Haemolytic activity; format: cell-based; conditions: OD 410 nm, repeated three times
Description: The experimental procedures were conducted in accordance with the guidelines approved by the Institutional Animal Care and Use Committee (IACUC) of Konkuk University, Seoul, Korea, and bovine blood was collected from a cow at a local farm using a BD Vacutainer® Sodium Heparin (BD Bioscience) to analyse haemolytic activity. Plasma was removed from the whole blood by centrifugation. Erythrocytes were washed thrice with phosphate-buffered saline (PBS, pH 7.4) and resuspended in PBS at a concentration of 2% (v/v). Subsequently, 100 µL of the erythrocyte suspension was added to each well of a 96-well microtiter plate. The plate contained an equal volume of the peptides in PBS with different concentrations of 10, 20, 40, 80, and 160 μg/mL. Triton-X 100 (1%) and PBS were used as positive and negative controls, respectively. Plates were incubated at 37 °C for 1 h. The release of haemoglobin into the supernatant was monitored by measuring the change in OD at 410 nm using a microplate reader (xMark™ spectrophotometer; Bio-Rad). Results from three independent experiments were pooled. Hemolysis was calculated using the formula: HemolyticPercentage(%)=100×(ODpeptide-ODnegative)/(ODpositive-ODnegative)
All experiments were carried out in triplicate.

[13] = test system: eight standard bacterial strains; format: cell-based; conditions: all eight standard strains; range stated for the three peptides
Description: as §1

[14] = test system: all bacterial strains in the panel and field isolates from milk; format: cell-based; conditions: against all bacterial strains in the panel and field isolates from milk
Description: The standard bacterial strains used for antimicrobial activity assays include Staphylococcus aureus ATCC (American Type Culture Collection, Manassas, VA, USA) 6538, Bacillus cereus ATCC 10876, Enterococcus faecalis ATCC 29212, Streptococcus agalactiae ATCC 27956, Streptococcus dysgalactiae ATCC 27957, Streptococcus equi subsp. zooepidemicus ATCC 43079, Escherichia coli ATCC 25922, and Pseudomonas aeruginosa ATCC 27853. Most bacterial strains were cultured in LB medium except for E. faecalis and streptococci, which were cultivated in brain heart infusion (BHI) broth (BD Bioscience).
as §2, §3

[15] = test system: field isolates from milk with high SCCs; conditions: all field isolates except A. hydrophila; range stated for the three peptides
Description: The minimum inhibitory concentration (MIC) was determined by following the manufacturer’s protocol and Clinical and Laboratory Standards Institute (CLSI) guidelines (2018) using a colourimetric method specified by the Microbial Viability Assay Kit-WST (Dojindo, Kumamoto, Japan). Four colonies of each bacterium were inoculated into 5 mL of LB medium and incubated at 37 °C for 4–6 h. The cells were then washed twice with sterile saline (0.9% NaCl) and seeded into a single well of a 96-well plate at a density of 1.5 × 10^5 cells/well, adjusting by McFarland standard 0.5. Subsequently, 180 µL/well of fresh MH broth (BD Bioscience) was added to the plate. Ampicillin, chloramphenicol, and gentamicin sulfate were used as controls for antimicrobial activity.
Different concentrations of each peptide and reference antibiotics (up to 40 µg/mL) were serially diluted in 10 µL of MH broth and added to each well. The plate was incubated at 37 °C for 6 h, using BHI broth to culture slow-growing fastidious strains, including E. faecalis, A. hydrophila, C. simulans, G. halophytocola, and streptococci. Cation-adjusted Mueller Hinton II broth (CAMHB) was employed to cultivate P. aeruginosa. Afterwards, 10 µL of the colouring reagent was added, and cells were incubated at 37 °C for 2 h. UV absorbance was measured for each well at 450 nm using a microplate spectrophotometer (xMark spectrophotometer; Bio-Rad, Hercules, CA, USA). The MIC values were determined when the absorbance difference between treatments and blanks (media and colouring reagent only) decreased to < 0.05. Experiments were conducted in triplicate.

PK15 cells [16] = test: Cytotoxicity, WST-1 cell viability; conditions: 24 h, 37 °C, repeated three times
Description: (§5) Human keratinocytes (HaCaT) and pig kidney fibroblast cells (PK15, ATCC CCL-33) were cultured in Dulbecco’s modified Eagle’s medium (DMEM; Hyclone™, Logan, UT, USA) and supplemented with 10% foetal bovine serum (FBS; Hyclone™, Logan, UT, USA), 1% penicillin–streptomycin (Hyclone™) at 37 °C, and 5% CO2 up to 80% confluence. Cell substratum adhesion was disrupted using Accutase (Innovative Cell Technologies, San Diego, CA, USA). A total of 4 × 10^4 cells were incubated for 24 h at 37 °C and 5% CO2 in each well of a 96-well plate containing 64 and 160 µg/mL of each peptide.
(§6) A positive control for complete cell lysis was established using Triton-X100 (1%), and untreated cells were used as the negative control. After incubation, the medium was removed from the wells and replaced with 10 µL of colouring solution (Cell Proliferation Reagent WST-1™) and 100 µL of DMEM (Hyclone™), per the manufacturer’s protocol. Each well absorbance was measured at 440 nm (peptide-treated and control) and 650 nm (background). These measurements were recorded as the optical density (OD) using a microplate reader (xMark™ spectrophotometer; Bio-Rad, CA, USA). Cell viability was calculated using the following equation: CellViability(%)=100×(ODpeptide-ODbackground)/(ODnegative-ODbackground)
(§7) All experiments were performed in triplicate.

HaCaT cells [17] = test: Cytotoxicity, WST-1 cell viability; conditions: 24 h, 37 °C, repeated three times
Description: as §5, §6, §7

Aeromonas hydrophila = test: microbe, parasite or virus in culture; format: cell-based; conditions: 6 h
Description: as §2, §3

PK15 cells [18] = test system: PK15 cells
Description: as §5, §6, §7

HaCaT cells [19] = test system: HaCaT cells
Description: as §5, §6, §7

[20] = 10 μg/mL, 2% (v/v) erythrocytes in PBS pH 7.4, 37 °C 1 h, mean ± SD
[21] = 20 μg/mL, 2% erythrocytes in PBS pH 7.4, 37 °C 1 h
[22] = 40 μg/mL, 2% erythrocytes in PBS pH 7.4, 37 °C 1 h
[23] = 80 μg/mL, 2% erythrocytes in PBS pH 7.4, 37 °C 1 h

Description for PK15 and HaCaT cells: as §5, §6, §7

| Substance | Minimal inhibitory concentration, Bacillus cereus [1] | Minimal inhibitory concentration, Enterococcus faecalis [2] | Minimal inhibitory concentration, Pseudomonas aeruginosa [3] | Minimal inhibitory concentration, Staphylococcus aureus [4] | Minimal inhibitory concentration, Streptococcus agalactiae [5] | Minimal inhibitory concentration, Streptococcus dysgalactiae [6] | Minimal inhibitory concentration, Streptococcus equi subsp. zooepidemicus [7] | Minimal inhibitory concentration, Corynebacterium simulans (Corynebacterium simulans) | Minimal inhibitory concentration, Glutamicibacter halophytocola [8] | Minimal inhibitory concentration, Staphylococcus chromogenes [9] | Minimal inhibitory concentration, Staphylococcus epidermidis [10] | Minimal inhibitory concentration, Staphylococcus xylosus (Staphylococcus xylosus) | Minimal inhibitory concentration, Streptococcus uberis (Streptococcus uberis) | antibacterial activity after incubation with serum (E. coli (ATCC 25922) [12]) | Haemolytic activity against bovine erythrocytes (bovine erythrocytes; [20]) | Haemolytic activity against bovine erythrocytes (bovine erythrocytes; [21]) | Haemolytic activity against bovine erythrocytes (bovine erythrocytes; [22]) | Haemolytic activity against bovine erythrocytes (bovine erythrocytes; [23]) | MICs, range over all bacterial species in the test panel [13] | minimum inhibitory concentration, range over strains [14] | also measured |
| --- | --- | --- | --- | --- | --- | --- | --- | --- | --- | --- | --- | --- | --- | --- | --- | --- | --- | --- | --- | --- | --- |
| LNPLIKAGIFILKHRRPIGRGIEITGRGIKKFFSK [ML-CATH] | 3 (0.8) μg/mL | 5 (1.3) μg/mL | 42 (10.6) μg/mL | 2 (0.5) μg/mL | 8 (2.0) μg/mL | 14 (3.5) μg/mL | 9 (2.3) μg/mL | 1 (0.3) μg/mL | 2 (0.5) μg/mL | 2 (0.5) μg/mL | 2 (0.5) μg/mL | 2 (0.5) μg/mL | 3 (0.8) μg/mL | remained unaffected under all the tested conditions | 5.8 ± 0.4% | 6.4 ± 0.8% | 7.0 ± 0.8% | 7.7 ± 0.2% | 2 to 42 µg/mL | 0.2 to 10.3 µM | MIC against E. coli in more acidic conditions (E. coli (ATCC 25922) [11]; ATCC 25922, pH 5): 2 µg/mL; Haemolytic activity against bovine erythrocytes (bovine erythrocytes; 160 μg/mL, 2% erythrocytes in PBS pH 7.4, 37 °C 1 h): 11.8 ± 4.5%; MICs, range over field isolates [15]: 0.8 to 5 µg/mL; cell viability of PK15 and HaCaT (PK15 and HaCaT cells): 91.1 ± 1.8% to 100.6 ± 0.4; Cell viability ± SD, PK15 (PK15 cells [16]; 64 μg/mL peptide): 96.2 ± 0.4%; Cell viability ± SD, PK15 (PK15 cells [16]; 160 μg/mL peptide): 38.0 ± 2.2%; Cell viability ± SD, HaCaT (HaCaT cells [17]; 64 μg/mL peptide): 99.7 ± 0.9%; Cell viability ± SD, HaCaT (HaCaT cells [17]; 160 μg/mL peptide): 98.0 ± 1.5% |
| RVRRFWPLVPVAINTVAAGINLYKAIRRK [cc-CATH3] | 4 (1.28) μg/mL | 5 (1.5) μg/mL | 4 (1.28) μg/mL | 2 (0.6) μg/mL | 4 (1.28) μg/mL | 7 (2.0) μg/mL | 5 (1.5) μg/mL | 0.8 (0.2) μg/mL | 2 (0.6) μg/mL | 3 (0.9) μg/mL | 2 (0.6) μg/mL | 2 (0.6) μg/mL | 4 (1.2) μg/mL | significantly affected in concentrations lower than 3 × MIC | 0.0 ± 0.1% | 0.0 ± 0.1% | 0.4 ± 0.2% | 0.8 ± 0.1% | 2 to 42 µg/mL | 0.2 to 10.3 µM | Minimal inhibitory concentration, Aeromonas hydrophila (Aeromonas hydrophila): > 160 (47.4) μg/mL; Minimal inhibitory concentration against E. coli, 150 mM NaCl (E. coli (ATCC 25922) [11]; ATCC 25922): 1.6 µM; MICs, range over field isolates [15]: 0.8 to 5 µg/mL; cell viability of PK15 and HaCaT (PK15 and HaCaT cells): 91.1 ± 1.8% to 100.6 ± 0.4; Cell viability ± SD, PK15 (PK15 cells [16]; 64 μg/mL peptide): 91.1 ± 1.8%; Cell viability ± SD, PK15 (PK15 cells [16]; 160 μg/mL peptide): 32.7 ± 3.5%; Cell viability ± SD, HaCaT (HaCaT cells [17]; 64 μg/mL peptide): 100.6 ± 0.4%; Cell viability ± SD, HaCaT (HaCaT cells [17]; 160 μg/mL peptide): 90.1 ± 4.8% |
| Triton X-100 [Triton X-100 (1%)] |  |  |  |  |  |  |  |  |  |  |  |  |  |  |  |  |  |  |  |  | Cell viability ± SD, PK15 (PK15 cells [18]): 13.3 ± 0.1%; Cell viability ± SD, HaCaT (HaCaT cells [19]): 13.0 ± 0.4% |
